Data on 10 compounds can be found in patent US12187684B2, “Benzimidazole derivatives as modulators of retinoid-related orphan receptor gamma (RORγ) and pharmaceutical use thereof” (Jiangsu Hengrui Medicine Co., Ltd., priority 2018, dated 2025).

Experiment [1] concerns the target T1, RORγ LBD-GST tagged (Homo sapiens, UniProt P51449).
T1 construct: RORγ LBD-GST tagged (Cat No. RORC-114H, Creative Biomart); purchased Creative Biomart RORC-114H
T1 sequence (P51449 269-508 limits assumed): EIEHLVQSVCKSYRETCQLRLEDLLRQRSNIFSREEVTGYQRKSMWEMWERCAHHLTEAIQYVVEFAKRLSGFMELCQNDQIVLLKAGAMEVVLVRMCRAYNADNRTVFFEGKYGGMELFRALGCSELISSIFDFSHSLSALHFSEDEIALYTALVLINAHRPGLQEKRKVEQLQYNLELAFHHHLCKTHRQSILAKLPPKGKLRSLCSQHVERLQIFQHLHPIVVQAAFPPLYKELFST
The experiment is described as follows: LanthaScreen TR-FRET RORγ coactivator assay. It is filed as biochemical. The settings on record: Fluorescein-D22 coactivator peptide, 1 hour room temperature. An outline of the steps: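 GST-tagged RORγ LBD (25 ng/reaction) was incubated in coregulator buffer D with 5 mM DTT and compound (top 3 μM, 7-fold steps, 7 doses), then with a mix containing 0.6 μM fluorescein-D22 peptide and 8 nM Tb anti-GST antibody. After 1 h at room temperature in the dark, 520/495 nm TR-FRET was read. IC50 came from log concentration versus percent inhibition.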

The test system of experiment [2] is IL-17 production, human PBMC cells. Kind of experiment: IL-17 production assay using human PBMC. It is filed as cell-based. The settings on record: human PBMC stimulated by cytostim for 3 days, IL-17 ELISA of supernatant. An excerpt: Test Example 2. IL-17 Production Assay Using Human PBMC
• 1. Human PBMC cells (Cat No. 70025.1, Zenbio) • 2. Lymphocyte medium (Cat No. LYMPH-1, Zenbio) • 3. TexMACS (Cat No. 130-097-196, Miltenyi) • 4. Cytostim-human (Cat No. 1130-092-173, Miltenyi) • 5. Human IL-17 ELISA (Cat No. D1700, R&D systems) • 6. Tecan Infinite M1000 plate reader (Tecan)
Experimental Procedure for IL-17 Production Assay
Cryopreserved peripheral blood human mononuclear cells (PBMCs) were rapidly thawed in warmed Lymphocyte media, and centrifuged cell suspension at 1000 rpm for 10 minutes. The supernatant was removed, and the cell pellets were gently resuspended in TexMACS media.
Human PBMC cells in TexMACS media were plated at 1×10^5 each well in triplicate. The test compounds at various concentrations or vehicle control (<0.5% DMSO) were added into cell culture. The cells were stimulated by cytostim (10 μL/mL) for 3 days in a humidified, 5% CO2 incubator at 37° C.
After incubation, the cell culture supernatant was harvested, and then removed particulates by centrifugation. Human IL-17 in the supernatant was measured using human IL-17 ELISA kit according to the manufacturer's protocol. IC50 values were determined using GraphPad Prism by plotting the compounds concentration versus percent inhibition.

For `NC(=O)CC(c1ccc(S(=O)(=O)CC2CC2)cc1)c1nc2cc(Cl)c(N3CCC(F)(F)CC3)c(Cl)c2[nH]1` (single isomer, unassigned) [the longer retention time of 162 and 163, 3-(4-((cyclopropylmethyl)sulfonyl)phenyl)-3-(5,7-dichloro-6-(4,4-difluoropiperidin-1-yl)-1H-benzo[d]imidazol-2-yl)propanamide], the IC50 (usually the midpoint of a concentration-inhibition curve) in experiment [1] is 0.31 µM; in experiment [2], 0.029 µM.
Turning to `CCS(=O)(=O)c1ccc(C(O)c2nc3c(Cl)c(-c4ccccc4CCC(F)(F)F)c(Cl)cc3[nH]2)cc1` (centres unmarked) [Example 35, (4,6-dichloro-5-(2-(3,3,3-trifluoropropyl)phenyl)-1H-benzo[d]imidazol-2-yl)(4-(ethylsulfonyl)phenyl)methanol], the IC50 in experiment [1] amounted to 0.061 µM; in experiment [2] (Homo sapiens, PBMC, 72 h), 0.008 µM.
The like results for `CCS(=O)(=O)c1ccc(C(O)c2nc3c(Cl)c(-c4ccccc4OC(F)(F)F)c(Cl)cc3[nH]2)c(F)c1` (centres unmarked) [Example 78, (4,6-dichloro-5-(2-(trifluoromethoxy)phenyl)-1H-benzo[d]imidazol-2-yl)(4-(ethylsulfonyl)-2-fluorophenyl)methanol] were, in that order, 0.028 µM and 0.069 µM.
Taken in the same sequence, the figures for `O=S(=O)(CC1CC1)c1ccc(C(O)c2nc3c(Cl)c(-c4ccccc4OC(F)F)c(Cl)cc3[nH]2)c(F)c1` (centres unmarked) [Example 100, (4-((cyclopropylmethyl)sulfonyl)-2-fluorophenyl)(4,6-dichloro-5-(2-(difluoromethoxy)phenyl)-1H-benzo[d]imidazol-2-yl)methanol] were 0.014 µM and 0.0013 µM.
Taken in the same sequence, the figures for `O=S(=O)(CC1CC1)c1ccc(C(CO)c2nc3c(Cl)c(-c4ccccc4OC(F)F)c(Cl)cc3[nH]2)cc1` (centres unmarked) [Example 73, 2-(4-((cyclopropylmethyl)sulfonyl)phenyl)-2-(4,6-dichloro-5-(2-(difluoromethoxy)phenyl)-1H-benzo[d]imidazol-2-yl)ethanol] were 0.029 µM and 0.001 µM.
Regarding `CCS(=O)(=O)c1ccc(C(CO)c2nc3c(Cl)c(-c4ccccc4OC)c(Cl)cc3[nH]2)cc1` (centres unmarked) [Example 6, 2-(4,6-dichloro-5-(2-methoxyphenyl)-1H-benzo[d]imidazol-2-yl)-2-(4-(ethylsulfonyl)phenyl)ethanol], the IC50 in experiment [1] stood at 0.003 µM; in experiment [2] (Homo sapiens, PBMC, 72 h), 0.022 µM.
Taken in the same sequence, the figures for `CCS(=O)(=O)c1ccc(/C(=N\O)c2nc3c(Cl)c(-c4ccccc4OC(F)F)c(Cl)cc3[nH]2)cc1` [Example 38, (E,Z)-(4,6-dichloro-5-(2-(difluoromethoxy)phenyl)-1H-benzo[d]imidazol-2-yl)(4-(ethylsulfonyl)phenyl)methanone oxime] were 0.147 µM and 0.873 µM.
The like results for `O=S(=O)(CC1CC1)c1ccc(C(CO)c2nc3c(Cl)c(-c4ccccc4OC(F)(F)F)c(Cl)cc3[nH]2)cc1` (centres unmarked) [Example 67, 2-(4-((cyclopropylmethyl)sulfonyl)phenyl)-2-(4,6-dichloro-5-(2-(trifluoromethoxy)phenyl)-1H-benzo[d]imidazol-2-yl)ethanol] were, in that order, 0.002 µM and 0.002 µM.
Taken in the same sequence, the figures for `O=S(=O)(CC1CC1)c1ccc(C(CCN2CCOCC2)c2nc3cc(Cl)c(N4CCC(F)(F)CC4)c(Cl)c3[nH]2)cc1` (centres unmarked) [Example 170, 4-(3-(4-((cyclopropylmethyl)sulfonyl)phenyl)-3-(5,7-dichloro-6-(4,4-difluoropiperidin-1-yl)-1H-benzo[d]imidazol-2-yl)propyl)morpholine] were 0.71 µM and 0.43 µM.
As for `CCS(=O)(=O)c1ccc(C(CO)c2nc3c(Cl)c(-c4ccccc4OC(F)F)c(Cl)cc3[nH]2)cc1` (centres unmarked) [Example 29, 2-(4,6-dichloro-5-(2-(difluoromethoxy)phenyl)-1H-benzo[d]imidazol-2-yl)-2-(4-(ethylsulfonyl)phenyl)ethanol], the IC50 was 0.269 µM in experiment [1] and 0.009 µM in experiment [2] (Homo sapiens, PBMC, 72 h).
